Values quoted from earlier work, collected in US10729634B2, “Sex hormone-binding globulin for use as a medicament” (FUNDACIÓ HOSPITAL UNIVERSITARI VALL D'HEBRON—INSTITUT DE …, priority 2013, dated 2020).

Tests used:
[1] = tested on: HepG2 hepatoblastoma cells; settings: positive control, 3 μM; cited from earlier work
[2] = cited from earlier work

Question: For `CC(C)NCC(O)c1ccc(O)c(O)c1` (stereo not shown) [Isoproterenol], which lipolysis [1] is on record?
Answer: induces lipolysis

Question: Which side effects ([2]; in vivo) does the source give for `CCCCCCCCCCC[C@@H](C[C@@H]1OC(=O)[C@H]1CCCCCC)OC(=O)[C@H](CC(C)C)NC=O` [orlistat] here?
Answer: associated with gastrointestinal side effects

Question: For `C[C@H]1CNCCc2ccc(Cl)cc21` [Lorcaserin], which “average weight loss greater than placebo” value ([2]; over a year) is on record?
Answer: 3.1 kg

Question: And the “average weight loss greater than placebo, of body mass” value ([2]; over a year)?
Answer: 3%
